Measurements as given in patent US20110093959A1, “CRYPTOTIS PARVA SCREENING MODEL FOR ANTIEMETIC POTENTIAL” (priority 2008, published 2011).
Several values for one entry are separate records, joined by “and”; a condition that tells them apart may be missing. Equal entries are not always repeated.

Legend:
Assay type in all cases: in vivo, Cryptotis parva
[1] = test system: CIS-induced emesis in the Least Shrew; test: Tropisetron, Δ^9-THC and dexamethasone alone or in combination against CIS (20 mg/kg)-induced emesis, 60 min
Experimental: Briefly, all animals were randomly divided into two groups. On the test day, shrews were habituated to the laboratory environment for at least 1 hr prior to experimentation. […] All drugs were administered at a volume of 0.1 ml/10 g body weight. Immediately following the second injection, each shrew was placed in the observation cage, and both the number of animals vomiting per group and the frequency of vomiting (oral ejections of food or liquid) were recorded for the next 60 min
Poisson regression and logistic regression analyses were employed for two-way analysis of vomiting frequency and protection from emesis, respectively. […] Data regarding the frequency of emesis were analyzed by the Kruskal-Wallis nonparametric one-way analysis of variance (ANOVA), and post hoc analysis by Dunn's multiple comparisons test. The incidence of emesis (number of animals vomiting) was analyzed by Fisher's exact test to determine whether there were differences between groups, and when appropriate, pairwise comparisons were also made. A p value of<0.05 was necessary to achieve statistical significance.

[2] = test system: CIS-induced vomiting in the Least Shrew; test: THC and SR141716A on CIS (10 mg/kg)-induced vomiting, acute and delayed phase; conditions: CIS 10 mg/kg i.p., Δ^9-THC 2.5 mg/kg i.p., SR141716A 2 mg/kg i.p.
Fos = Fos expression in the dorsal vagal complex resulting from CIS-induced vomiting
Experimental: After the appropriate time period for acute or delayed phase vomiting, shrews were anesthetized with a lethal dose of pentobarbital (100 mg/kg) and perfused transcardially via blunted needle with a peristaltic pump. The shrew was perfused with ice cold 4% paraformaldehyde and 5% picric acid in pH 7.4, 0.1 M phosphate buffer (10 min). Brains were removed and stored in 30% sucrose in 0.1 M PB overnight, then embedded in blocks of 12% gelatin in 30% sucrose/PB. The blocks were postfixed for 3 hr in 2% paraformaldehyde/PB, then rinsed and immersed in 30% sucrose/PB until they sank (usually 1-2 hr). The brain block was cut sagittally on a freezing benchtop microtome (Leica) at 30 μm into 5 series, and stored in PB with 0.03% sodium azide.
Immunolabeling was accomplished by blocking a free-floating series with 10% normal horse serum (NHS) and 3% hydrogen peroxide in PB with 0.3% Tri-ton X-100 (TX) for 30 min. After rinsing in PB, tissue was put in sheep anti-Fos polyclonal antibody (Chemicon/Millipore, Temecula, Calif.; 1:600), with 5% NHS and 0.3% TX in PB, and incubated for about 42 hr at room temperature (RT) with gentle shaking. After rinsing in PB, the tissue was placed in biotinylated donkey anti-sheep IgG secondary antibody (Jackson Immunoresearch, West Grove, Pa.; 1:600) diluted in the same diluent described for the primary antibody, and the tissue incubated at RT with shaking for 75 min Tissue was then rinsed and incubated for 60 min in HRP-conjugated avidin-biotin complex (Vector Labs, Burlingame, Calif.; Vectastain kit diluted 1:2) in PB. Tissue was then rinsed twice in PB, then once in imidazole-acetate buffer (0.1 M, pH 7.4), then reacted for 6 min in 0.0006% hydrogen peroxide with 2% nickel ammonium sulfate-enhanced diaminobenzidine (DAB, 0.05% in 0.1 M imidazole-acetate buffer). All reagents for DAB processing were purchased from Sigma-Aldrich. […]

[3] = 1 mg/kg i.p., administered alone
[4] = 5 mg/kg i.p., administered alone
[5] = Δ^9-THC 1 mg/kg with 0.1 mg/kg tropisetron
[6] = Δ^9-THC 5 mg/kg with 0.025 mg/kg tropisetron
[7] = Δ^9-THC 5 mg/kg with 0.1 mg/kg tropisetron
[8] = Δ^9-THC 5 mg/kg with 0.25 mg/kg tropisetron

For `CCCCCc1cc(O)c2c(c1)OC(C)(C)[C@@H]1CCC(C)=C[C@@H]21` [Δ^9-THC, Δ^9-tetrahydrocannabinol], the “reduction in frequency of CIS-induced emesis” value ([1]; 0.25 mg/kg i.p., administered alone) was 59.3%, the “reduction in frequency of CIS-induced emesis” value ([1]; 0.5 mg/kg i.p., administered alone) was 66.7% and the “reduction in frequency of CIS-induced emesis” value [1, 3] was 83.7%. The “reduction in percentage of shrews vomiting in response to CIS” value (from here on “reduction in percentage”) [1, 3] was 64%, the “reduction in percentage” value ([1]; 2.5 mg/kg i.p., administered alone) was 83.3% and 83% and the “reduction in frequency of CIS-induced emesis” value [1, 4] was 96.7%. The “reduction in percentage” value [1, 4] was 92% and 91.6%, the “reduction in percentage” value ([1]; 10 mg/kg i.p., administered alone) was 100% and the “additive or synergistic effect on percentage of animals vomiting” value ([1]; tested combinations of Δ^9-THC and tropisetron) was “no additive or synergistic antiemetic effects”. The “reduction in frequency of vomiting” value ([1]; Δ^9-THC 0.25 mg/kg coadministered with 5 mg/kg DEX) was 55.5%, the “reduction in percentage” value ([1]; Δ^9-THC 0.25 mg/kg in shrews pretreated with 5 mg/kg DEX) was 42% and the “reduction in frequency of CIS-induced emesis” value ([1]; Δ^9-THC 0.25 mg/kg with 0.025 mg/kg tropisetron) was 72.6%. For the same compound, the “reduction in frequency of CIS-induced emesis” value ([1]; Δ^9-THC 0.25 mg/kg with 0.1 mg/kg tropisetron) was 69.7%, the “reduction in frequency of CIS-induced emesis” value ([1]; Δ^9-THC 0.5 mg/kg with 0.025 mg/kg tropisetron) was 56.1% and the “reduction in frequency of CIS-induced emesis” value ([1]; Δ^9-THC 0.5 mg/kg with 0.1 mg/kg tropisetron) was 74.6%. For the same compound, the “reduction in frequency of CIS-induced emesis” value ([1]; Δ^9-THC 1 mg/kg with 0.025 mg/kg tropisetron) was 61.6%, the “reduction in frequency of CIS-induced emesis” value [1, 5] was 88% and the “reduction in number of shrews vomiting” value [1, 5] was 77%. For the same compound, the “reduction in frequency of CIS-induced emesis” value ([1]; Δ^9-THC 1 mg/kg with 0.25 mg/kg tropisetron) was 91%, the “reduction in percentage” value ([1]; Δ^9-THC 2.5 mg/kg with DEX 0.25 mg/kg) was 77% and the “reduction in percentage” value ([1]; Δ^9-THC 2.5 mg/kg with DEX 1 mg/kg) was 92%. For the same compound, the “reduction in percentage” value ([1]; Δ^9-THC 2.5 mg/kg with DEX 5 mg/kg) was 79%, the “reduction in percentage” value ([1]; Δ^9-THC 2.5 mg/kg with DEX 10 mg/kg) was 77% and the “reduction in percentage” value ([1]; Δ^9-THC 2.5 mg/kg with DEX 20 mg/kg) was 50%. For the same compound, the “reduction in frequency of CIS-induced emesis” value [1, 6] was 86.3%, the “reduction in percentage” value [1, 6] was 75% and the “reduction in frequency of CIS-induced emesis” value [1, 7] was 97.7%. The “reduction in percentage” value [1, 7] was 88%, the “reduction in frequency of CIS-induced emesis” value [1, 8] was 100% and the “reduction in percentage” value [1, 8] was 100%. The “reduction in percentage” value ([1]; Δ^9-THC 5 mg/kg with DEX 0.25 mg/kg) was 83%, the “reduction in percentage” value ([1]; Δ^9-THC 5 mg/kg with DEX 1 mg/kg) was 92% and the “reduction in percentage” value ([1]; Δ^9-THC 5 mg/kg with DEX 5 mg/kg) was 77%. The “reduction in percentage” value ([1]; Δ^9-THC 5 mg/kg with DEX 10 mg/kg) was 92%, the “reduction in percentage” value ([1]; Δ^9-THC 5 mg/kg with DEX 20 mg/kg) was 77% and the “reduction in percentage” value ([1]; Δ^9-THC 10 mg/kg with DEX 0.25 mg/kg) was 92%. For the same compound, the “reduction in percentage” value ([1]; Δ^9-THC 10 mg/kg with DEX 1 mg/kg) was 83%, the “reduction in percentage” value ([1]; Δ^9-THC 10 mg/kg with DEX 5 mg/kg) was 67% and the “reduction in percentage” value ([1]; Δ^9-THC 10 mg/kg with DEX 10 mg/kg) was 92%. The “reduction in percentage” value ([1]; Δ^9-THC 10 mg/kg with DEX 20 mg/kg) was 75%, the “combination efficacy in reducing the frequency of emesis” value ([1]; Δ^9-THC 0.25 and 0.5 mg/kg combined with tropisetron 0.025 and 0.1 mg/kg) was “significantly greater additive efficacy” and the “effect on frequency of emesis” value ([1]; Δ^9-THC combined with 1 mg/kg or 5 mg/kg tropisetron) was “failed to produce significant reductions”. The “additive or synergistic antiemetic activity” value ([1]; Δ^9-THC combined with DEX, at the doses tested) was “no significant additive or synergistic antiemetic activity”, the “Number vomited per total in group” value ([2]; Acute phase) was 1/8 and the “Number vomited per total in group” value ([2]; Delayed phase) was 2/9. For the same compound, the “number of Fos-immunopositive nuclei vs vehicle injections” value (Fos; acute phase of CIV, NTS, AP and DMNX) was “significantly (P<0.05) reduced” and the “number of Fos-immunopositive nuclei vs vehicle-injected animals” value (Fos; delayed phase, NTS and DMNX) was “significantly fewer”.
